Laboratory results reported in patent US20110223256A1, “Method For Stabilizing Flavonoid Aqueous Dispersion” (STOKELY-VAN CAMP, INC., priority 2010, published 2011).

Assay: Shelf life of aqueous dispersion in 20 oz beverage
Assay type: physicochemical
Details: aqueous dispersion in 20 oz beverage, 22-25° C.; stable = no settling, phase separation or precipitates
Procedure: As set forth in the examples below, stable aqueous dispersions containing bioactive compounds were prepared by using the solubilization and stabilization process. The resulting dispersions were fine, homogeneous, and stable. There were no settling, phase separation, and precipitates on the side of the bottle (See FIG. 3 and Table 1).

| Shelf Life (22-25° C.) | SMILES |
| --- | --- |
| Stable after at least 3 months | C[C@@H]1CC[C@H]2[C@@H](C)C(=O)O[C@@H]3O[C@@]4(C)CC[C@@H]1[C@]32OO4 [Artemisinin, reference compound] |
| Stable after at least 3 months | COc1cc(/C=C/C(=O)CC(=O)/C=C/c2ccc(O)c(OC)c2)ccc1O [Curcumin] |
| Stable after at least 3 months | COc1ccc([C@@H]2CC(=O)c3c(O)cc(O[C@@H]4O[C@H](CO[C@@H]5O[C@@H](C)[C@H](O)[C@@H](O)[C@H]5O)[C@@H](O)[C@H](O)[C@H]4O)cc3O2)cc1O [Hesperedin] |
| Stable after at least 3 months | O=C1C[C@@H](c2ccc(O)cc2)Oc2cc(O)cc(O)c21 [Naringenin] |
| Stable after at least 6 months | O=c1c(O)c(-c2ccc(O)c(O)c2)oc2cc(O)cc(O)c12 [Quercetin, 2-(3,4-dihydroxyphenyl)-3,5,7-trihydroxy-4H-chromen-4-one] |
| Stable after at least 3 months | Oc1ccc(C=Cc2cc(O)cc(O)c2)cc1 [Resveratrol] |
| Stable after at least 3 months | COc1ccc2oc(-c3ccc(OC)c(OC)c3)c(OC)c(=O)c2c1 [Tetramethoxyflavone, 3,6,3′,4′-Tetramethoxyflavone] |

Same assay, conditions: depending on the dispersion stabilizer(s) used

| SMILES | Length of time quercetin stays dispersed in a beverage |
| --- | --- |
| O=c1c(O)c(-c2ccc(O)c(O)c2)oc2cc(O)cc(O)c12 [Quercetin, 2-(3,4-dihydroxyphenyl)-3,5,7-trihydroxy-4H-chromen-4-one] | about 12 hours to about six months or longer |
